# Measurements from patent US20260130933A1, “PHARMACEUTICAL COMPOSITION FOR PREVENTION OR TREATMENT OF NEPHROPATHY AND/OR DIABETES MELLITUS, COMPRISING ENAVOGLIFLOZIN” (DAEWOONG PHARMACEUTICAL CO., LTD., priority 2022, published 2026).
# Test: Example 2: phase 3 trial, enavogliflozin 0.3 mg vs dapagliflozin 10 mg once a day for 24 weeks added to metformin in patients with type 2 diabetes (same efficacy, exploratory and safety endpoints)
# Assay type: in vivo, human
# Procedure: Subjects who met the inclusion/exclusion criteria were administered a placebo of the clinical trial drug under single-blind (subject blinding) conditions during a 2-week run-in period while continuing to receive metformin. […] The randomized subjects were administered two tablets of the clinical trial drug for each administration group once a day, and then visited the institution at weeks 6, 12, 18, and 24 during the 24-week administration period to conduct efficacy and safety evaluations.
# • 1. Change in HbA1c at week 24 after administration of clinical trial drug compared to Visit 2 (randomization)
# • 1. Change in HbA1c at each time point of weeks 6, 12, and 18 after administration of clinical trial drug compared to Visit 2 (randomization) • 2. Change in FPG at each time point of weeks 6, 12, 18, and 24 after administration of clinical trial drug compared to Visit 2 (randomization) • 3. Proportion of subjects achieving HbA1c<7% at each time point of weeks 6, 12, 18, and 24 after administration of clinical trial drug • 4. Proportion of subjects achieving HbA1c<6.5% at each time point of weeks 6, 12, 18, and 24 after administration of clinical trial drug • 5. Proportion of subjects achieving therapeutic response (HbA1c change (HbA1c at Visit 2-HbA1c at each evaluation time point)>0.5% or HbA1c<7% at each evaluation time point compared to Visit 2 (randomization)) at each time point of weeks 6, 12, 18 and 24 after administration of clinical trial drug
# • 1. Change in fasting c-peptide at each time point of weeks 6, 12, 18, and 24 after administration of clinical trial drug compared to Visit 2 (randomization) • 2. Change in body weight at each time point of weeks 6, 12, 18, and 24 after administration of clinical trial drug compared to Visit 2 (randomization) • 3. Change in fasting lipid concentration (total cholesterol, LDL-C, HDL-C, and triglycerides) at each time point of weeks 6, 12, 18, and 24 after administration of clinical trial drug compared to Visit 2 (randomization) • 4. Changes in systolic or diastolic blood pressure at each time point of weeks 6, 12, 18, and 24 after administration of clinical trial drug compared to Visit 2 (randomization) • 5. Changes in β-cell function and insulin resistance measured by HOMA-β and HOMA-IR at each time point of weeks 6, 12, 18, and 24 after administration of clinical trial drug compared to Visit 2 (randomization) • 6. Changes in renal function-related indicators (UACR, UGCR) measured by UACR at each time point of weeks 6, 12, 18, and 24 after administration of clinical trial drug compared to Visit 2 (randomization) • 7. Changes in obesity-related indicators (adiponectin, leptin) at each time point of weeks 6, 12, 18, and 24 after administration of clinical trial drug compared to Visit 2 (randomization)
# [1] = Week 18, mPPS1, enavogliflozin minus dapagliflozin
# [2] = Week 18, mPPS2, enavogliflozin minus dapagliflozin
# [3] = Week 24, PPS, enavogliflozin minus dapagliflozin
smiles,measurement,setting,value
"OC[C@H]1O[C@@H](c2cc(Cc3ccc(C4CC4)cc3)c(Cl)c3c2CCO3)[C@H](O)[C@@H](O)[C@@H]1O [Enavogliflozin, (2S,3R,4R,5S,6R)-2-(7-chloro-6 (4-cyclopropylbenzyl)-2,3-dihydrobenzofuran-4-yl)-6-(hydroxymethyl)tetrahydro-2H-pyran-3,4,5-triol]","LDL-C, Mean (SD)","Week 18, mPPS1",85.75(29.78) mg/dL
same,"LDL-C, Median","Week 18, mPPS1",77.50 mg/dL
same,"Triglycerides change from baseline, ANCOVA LS mean (SE)","Week 18, mPPS1",−4.99(5.99) mg/dL
same,"Triglycerides change from baseline, Mean (SD)","Week 18, mPPS1",−2.70(78.86) mg/dL
same,"Triglycerides change from baseline, Median","Week 18, mPPS1",-2.50 mg/dL
same,"Triglycerides, Mean (SD)","Week 18, mPPS1",118.10(55.93) mg/dL
same,"Triglycerides, Median","Week 18, mPPS1",108.00 mg/dL
same,"HDL-C change from baseline, LS mean difference",[1],-0.62 mg/dL
same,"LDL-C change from baseline, LS mean difference",[1],-1.15 mg/dL
same,"triglycerides change from baseline, LS mean difference",[1],-6.87 mg/dL
same,"Diastolic blood pressure change from baseline, ANCOVA LS mean (SE)","Week 18, mPPS2",−4.80 mmHg
same,"Diastolic blood pressure change from baseline, Mean (SD)","Week 18, mPPS2",−5.05 mmHg
same,"Diastolic blood pressure change from baseline, Median","Week 18, mPPS2",−5.00 mmHg
same,"Diastolic blood pressure, Mean (SD)","Week 18, mPPS2",71.85 mmHg
same,"Diastolic blood pressure, Median","Week 18, mPPS2",71.00 mmHg
same,"Systolic blood pressure change from baseline, ANCOVA LS mean (SE)","Week 18, mPPS2",−6.69(1.12) mmHg
same,"Systolic blood pressure change from baseline, Mean (SD)","Week 18, mPPS2",−7.04(10.51) mmHg
same,"Systolic blood pressure change from baseline, Median","Week 18, mPPS2",−9.00 mmHg
same,"Systolic blood pressure, Mean (SD)","Week 18, mPPS2",122.70(12.89) mmHg
same,"Systolic blood pressure, Median","Week 18, mPPS2",122.00 mmHg
same,"diastolic blood pressure change from baseline, LS mean difference",[2],−0.70 mmHg
same,"systolic blood pressure change from baseline, LS mean difference",[2],−0.72 mmHg
same,"Adiponectin change from baseline, ANCOVA LS mean (SE)","Week 24, PPS",1.67 µg/mL
same,"Adiponectin change from baseline, Mean (SD)","Week 24, PPS",1.72 µg/mL
same,"Adiponectin change from baseline, Median","Week 24, PPS",1.21 µg/mL
same,"Adiponectin, Mean (SD)","Week 24, PPS",8.68 µg/mL
same,"Adiponectin, Median","Week 24, PPS",7.64 µg/mL
same,"HOMA-IR change from baseline, ANCOVA LS mean (SE)","Week 24, PPS",−1.85
same,"HOMA-IR change from baseline, Mean (SD)","Week 24, PPS",−1.69
same,"HOMA-IR change from baseline, Median","Week 24, PPS",−1.06
same,"HOMA-IR, Mean (SD)","Week 24, PPS",1.76
same,"HOMA-IR, Median","Week 24, PPS",1.48
same,"HOMA-β change from baseline, ANCOVA LS mean (SE)","Week 24, PPS",6.94
same,"HOMA-β change from baseline, Mean (SD)","Week 24, PPS",6.80
same,"HOMA-β change from baseline, Median","Week 24, PPS",4.00
same,"HOMA-β, Mean (SD)","Week 24, PPS",52.32
same,"HOMA-β, Median","Week 24, PPS",42.00
same,"Leptin change from baseline, ANCOVA LS mean (SE)","Week 24, PPS",-2.40 ng/mL
same,"Leptin change from baseline, Mean (SD)","Week 24, PPS",-2.53 ng/mL
same,"Leptin change from baseline, Median","Week 24, PPS",-1.77 ng/mL
same,"Leptin, Mean (SD)","Week 24, PPS",9.68 ng/mL
same,"Leptin, Median","Week 24, PPS",7.45 ng/mL
same,"UACR change from baseline, ANCOVA LS mean (SE)","Week 24, PPS",-24.29 g/kg
same,"UACR change from baseline, Mean (SD)","Week 24, PPS",-18270 mg/kg
same,"UACR change from baseline, Median","Week 24, PPS",-1.10 g/kg
same,"UACR, Mean (SD)","Week 24, PPS",19930 mg/kg
same,"UACR, Median","Week 24, PPS",10.20 g/kg
same,"UGCR change from baseline, ANCOVA LS mean (SE)","Week 24, PPS",60.48 mg/mg
same,"UGCR change from baseline, Mean (SD)","Week 24, PPS",58.90 mg/mg
same,"UGCR change from baseline, Median","Week 24, PPS",56.43 mg/mg
same,"UGCR, Mean (SD)","Week 24, PPS",60.43 mg/mg
same,"UGCR, Median","Week 24, PPS",57.88 mg/mg
same,"HOMA-IR change from baseline, LS mean difference",[3],−0.53
same,"HOMA-β change from baseline, LS mean difference",[3],−4.99
same,"UACR change from baseline, LS mean difference",[3],-6.93 g/kg
same,"UGCR change from baseline, LS mean difference",[3],15.54 mg/mg
same,"leptin change from baseline, LS mean difference",[3],-1.12 ng/mL
same,"HDL-C change from baseline, ANCOVA LS mean (SE)","Week 24, mPPS1",3.06(0.64) mg/dL
same,"HDL-C change from baseline, Mean (SD)","Week 24, mPPS1",2.75(6.70) mg/dL
same,"HDL-C change from baseline, Median","Week 24, mPPS1",3.00 mg/dL
same,"HDL-C, Mean (SD)","Week 24, mPPS1",53.69(10.72) mg/dL
same,"HDL-C, Median","Week 24, mPPS1",53.00 mg/dL
same,"LDL-C change from baseline, ANCOVA LS mean (SE)","Week 24, mPPS1",1.64(1.92) mg/dL
same,"LDL-C change from baseline, Mean (SD)","Week 24, mPPS1",0.88(17.04) mg/dL
same,"LDL-C change from baseline, Median","Week 24, mPPS1",3.00 mg/dL
same,"LDL-C, Mean (SD)","Week 24, mPPS1",87.40(29.52) mg/dL
same,"LDL-C, Median","Week 24, mPPS1",84.00 mg/dL
same,"Triglycerides change from baseline, ANCOVA LS mean (SE)","Week 24, mPPS1",−5.07(5.14) mg/dL
same,"Triglycerides change from baseline, Mean (SD)","Week 24, mPPS1",−2.47(76.88) mg/dL
same,"Triglycerides change from baseline, Median","Week 24, mPPS1",0.00 mg/dL
